Key:
[1] = test system: TGF beta-1; experiment: IHC TGF beta-1 in posterior stroma after Descemetorhexis; format: in vivo, New Zealand White rabbits; settings: topical and/or oral losartan
Procedure: (§1) Duplex immunohistochemistry (IHC) was performed after masking of slides by a researcher not involved in the analysis using previously described methods (de Oliveira et al., 2021) using primary antibodies (Table 2) confirmed by western blotting and IHC to recognize rabbit antigens or isotypic control antibodies (ThermoFisher Scientific, Waltham, MA), and secondary fluorescent tagged antibodies (Table 3).
The AB769 (Millipore, Temecula CA) collagen type IV antibody used in this study was generated against purified human and bovine collagen type IV, affinity purified with human and bovine collagen type IV crosslinked to agarose and cross-absorbed by the manufacturer with human and bovine collagens type I, II, III, V and VI to eliminate cross-reactivity. This antibody was shown previously to bind rabbit collagen IV in IHC (Sampaio et al., in press). The keratocan antibody was raised against peptide H2N-[…]-OH (SEQ ID NO:1).

[2] = test system: rabbit corneas after Descemetorhexis; experiment: Slit lamp opacity, scarring fibrosis and neovascularization one month after Descemetorhexis or sham surgery; format: in vivo, New Zealand White rabbits; settings: for intensity of opacity in a 2.5 mm circle of central cornea (ImageJ) vs vehicles or oral losartan alone: P<0.05
Procedure: All procedures involving animals were approved by the Institutional Animal Care and Use Committee (IACUC) at the Cleveland Clinic Foundation (Cleveland, OH, USA) and the Animal Care and Use Review Office of the Department of the Army (Fort Detrick, MD). All animals were treated in accordance with the tenets of the ARVO Statement for the Use of Animals in Ophthalmic and Vision Research. Twenty-eight 10- to 15-week-old female New Zealand White rabbits weighing 2.5 to 3.0 kg each were included in this study—four in each group.
The rabbits had general anaesthesia with 30 mg/kg ketamine hydrochloride and 5 mg/kg xylazine by IM injection. In addition, topical proparacaine hydrochloride 1% (Alcon, Ft Worth, TX, USA) was applied to each eye prior to the surgery. One cornea selected at random in each group either had sham surgery without Descemetorhexis or an 8 mm diameter central Descemet's membrane-endothelial excision. The time point of one month after surgery was selected for the study because myofibroblasts and fibrosis in the posterior cornea was maximal at this time point in a prior time course Descemetorhexis study (Sampaio et al., 2021). Descemetorhexis was performed as described in the prior study (Sampaio et al., 2021). Briefly, a wire lid speculum was placed into one eye of each rabbit and an 8 mm diameter gentian violet circle was marked on the epithelial surface for reference. A limbal entry incision was created with a 1.6 mm blade (Bausch and Lomb, Rochester, NY, USA) and 0.3 ml Healon OVD (Abbott Medical Optics Inc. Santa Ana, CA, USA) was injected into the anterior chamber. A reversed Sinskey hook (Katena, Denville, New Jersey, USA) was placed into the anterior chamber and an 8 mm diameter disc of Descemet's membrane and endothelium was excised underlying the 8 mm area previously marked on the anterior corneal surface, without a subsequent endothelial corneal transplant. No removal of Descemet's membrane or endothelium was performed in unwounded sham surgery eyes. Remaining Healon OVD was removed with a Simcoe irrigation and aspiration cannula (Bausch & Lomb, Storz, Rochester, NY, USA) and the anterior chamber was filled with balanced salt solution (BSS). A single 10-0 nylon suture was placed at the incision site to prevent leakage from the anterior chamber. One drop of ciprofloxacin (Alcon, Ft. Worth, TX, USA) was applied to the corneas immediately after surgery and four times a day until the epithelium entry wound healed at approximately 2 days.
The oral solution was prepared with 5 ml distilled water+50 ml ora-plus (suspending vehicle—Perrigo, Dublin, Ireland)+45 ml Ora-sweet (flavored syrup vehicle—Perrigo).
After one month of treatment, study eyes were dilated with two drops of 1% tropicamide (Akom Co., Lake Forest, IL) for thirty minutes. After general anaesthesia, the study eye in each rabbit had standardized slit lamp photographs at 20× magnification with a Haag Streit (Mason, OH, USA) BX900 slit lamp photography system using identical lighting position and intensity. For each study eye, the intensity of a 2.5 mm diameter central circle (not including the light reflex, examples shown in FIG. 1) was determined using ImageJ 1.53a analysis software. Statistical comparisons of the intensity of opacity was performed using the Kruskal-Wallis test followed by post-hoc Dunn's-Bonferroni test and p<0.05 was considered statistically significant

[3] = test system: collagen type IV; experiment: IHC collagen type IV intensity in posterior stroma (ImageJ) after Descemetorhexis; format: in vivo, New Zealand White rabbits; settings: one month
Procedure: as §1
The AB769 (Millipore, Temecula CA) collagen type IV antibody used in this study was generated against purified human and bovine collagen type IV, affinity purified with human and bovine collagen type IV crosslinked to agarose and cross-absorbed by the manufacturer with human and bovine collagens type I, II, III, V and VI to eliminate cross-reactivity. This antibody was shown previously to bind rabbit collagen IV in IHC (Sampaio et al., in press). […]
Collagen type IV intensity in immunohistochemistry images was quantitated in 0.75 W×0.5H rectangles of posterior stroma tangent to the posterior corneal surface using ImageJ on 7.62 cm wide×5.69 cm height and 300 DPI images generated using standardized microscopic illumination settings applied to all sections. The quantitation rectangles were positioned such that the posterior side of the rectangle was tangent to the posterior corneal surface just anterior to Descemet's membrane, if one was present, in the analysed specimens. […]

[4] = test system: collagen type IV; experiment: IHC stromal collagen type IV pixels (ImageJ) one month after -9D PRK; format: in vivo, New Zealand white rabbits
Procedure: Rabbits were euthanized while under ketamine-xylazine general anesthesia with 100 mg/kg Beuthanasia (Shering-Plough, Kenilworth, NJ, USA) by intravenous injection followed by bilateral pneumothorax. The corneo-scleral rims were removed with sharp Westcott scissors (Fairfield, CT, USA) and 0.12 forceps (Storz, St Louis, MO, USA). The corneo-scleral rim was then centered in a 24-mm×24-mm×5-mm mold (Fisher Scientific, Pittsburgh, PA, USA) that was filled with optimal cutting temperature (OCT) compound (Sakura Finetek, Torrance, CA, USA) and quick frozen on dry ice. Blocks were stored at −80° C. until sectioning. Blocks were bisected at the center of the cornea and 10-pm-thick transverse sections were cut from the central cornea with a cryostat (HM 505M; Micron 5 GmbH, Walldorf, Germany). Three sections from each cornea were placed on each 25-mm×75-mm×1-mm Superfrost Plus microscope slide (Fisher Scientific). Slides with sections were maintained at −20° C. prior to immunohistochemistry (IHC).
All images were converted to 300 DPI 900 pixel width×672 pixel height images with Photoshop 22.1.1 (Adobe, San Jose, CA). The mean pixels of stromal α-SMA or stromal collagen type IV were determined in a 900-pixel wide×235-pixel high rectangle (for either α-SMA or collagen type IV quantitation) with ImageJ in three sections for each cornea using the image panels showing only the color of interest. […]

[5] = Descemetorhexis, topical losartan

CCCCc1nc(Cl)c(CO)n1Cc1ccc(-c2ccccc2-c2nn[nH]n2)cc1 [losartan]
levels of TGF beta-1 in the posterior stroma or at the posterior stromal surface vs vehicle [1]: No effect | scarring fibrosis and neovascularization compared to vehicle control corneas ([2]; Descemetorhexis, oral 5 mg/kg three times a day): no difference | scarring fibrosis (slit lamp) ([2]; Descemetorhexis, topical 0.1 mg/ml six times per day): overall decrease | changes in corneal opacity and neovascularization compared with topical losartan alone ([2]; Descemetorhexis, topical 0.1 mg/ml six times per day and oral 5 mg/kg three times a day): not different | intensity of opacity in a 2.5 mm circle of central cornea (ImageJ) vs vehicles or oral losartan alone ([2]; Descemetorhexis, topical and oral losartan): significant decrease | corneal neovascularization that developed after Descemetorhexis [2, 5]: reduced | intensity of opacity in a 2.5 mm circle of central cornea (ImageJ) vs vehicles or oral losartan alone [2, 5]: significant decrease | effect on the transparency of sham unwounded corneas ([2]; oral 5 mg/kg three times per day): no effect | effect on the transparency of sham unwounded corneas ([2]; topical 0.1 mg/ml six times per day): no effect | posterior stromal collagen type IV production vs topical and oral vehicle ([3]; topical and oral losartan): significantly decreased | posterior stromal collagen type IV production vs topical and oral vehicle ([3]; topical losartan): significantly decreased | collagen type IV detected in the underlying anterior stroma (IHC) compared with vehicle [4]: far smaller amounts
